Measurements reported in patent US20240365783A1, “HERBICIDAL MALONAMIDES” (BASF SE, priority 2021, published 2024).

Key:
Format in all cases: in vivo
[1] = system: Digitaria sanguinalis (DIGSA); experiment: greenhouse pre-emergence herbicidal test, DIGSA; conditions: pre-emergence method, application rate 0.250 kg/ha, scale from 0 to 100
Excerpt: (§1) The culture containers used were plastic flowerpots containing loamy sand with approximately 3.0% of humus as the substrate. The seeds of the test plants were sown separately for each species.
(§2) For the pre-emergence treatment, the active ingredients, which had been suspended or emulsified in water, were applied directly after sowing by means of finely distributing nozzles. The containers were irrigated gently to promote germination and growth and subsequently covered with transparent plastic hoods until the test plants had rooted. This cover caused uniform germination of the test plants, unless this had been impaired by the active ingredients.
(§3) Depending on the species, the test plants were kept at 10-25° C. or 20-35° C., respectively.
(§4) The test period extended over 2 to 4 weeks. During this time, the test plants were tended, and their response to the individual treatments was evaluated.
(§5) Evaluation was carried out using a scale from 0 to 100. 100 means no emergence of the test plants, or complete destruction of at least the aerial moieties, and 0 means no damage, or normal course of growth. A good herbicidal activity is given at values of 70 to <90 and a very good herbicidal activity is given at values of 90 to 100.
(§6) The test plants used in the greenhouse experiments were of the following species: […]

[2] = system: Lolium multiflorum (LOLMU); experiment: greenhouse pre-emergence herbicidal test, LOLMU; conditions: pre-emergence method, application rate 0.250 kg/ha, scale from 0 to 100
Excerpt: as §1, §2, §3, §4, §5, §6

[3] = system: Abutilon theophrasti (ABUTH); experiment: greenhouse pre-emergence herbicidal test, ABUTH; conditions: pre-emergence method, scale from 0 to 100
Excerpt: as §1, §2, §3, §4, §5, §6

[4] = system: Apera spica-venti (APESV); experiment: greenhouse pre-emergence herbicidal test, APESV; conditions: pre-emergence method, application rate 0.500 kg/ha, scale from 0 to 100
Excerpt: as §1, §2, §3, §4, §5, §6

[5] = system: Alopercurus myosuroides (ALOMY); experiment: greenhouse post-emergence herbicidal test, ALOMY; conditions: post-emergence method, application rate 0.500 kg/ha, scale from 0 to 100
Excerpt: as §1
(§7) For the post-emergence treatment, the test plants were first grown to a height of 3 to 15 cm, depending on the plant habit, and only then treated with the active ingredients which had been suspended or emulsified in water. For this purpose, the test plants were either sown directly and grown in the same containers, or they were first grown separately as seedlings and transplanted into the test containers a few days prior to treatment.
as §3, §4, §5, §6

Avena fatua (AVEFA) = experiment: greenhouse post-emergence herbicidal test, AVEFA; conditions: post-emergence method, application rate 0.500 kg/ha, scale from 0 to 100
Excerpt: as §1, §7, §3, §4, §5, §6

Setaria viridis (SETVI) = experiment: greenhouse post-emergence herbicidal test, SETVI; conditions: post-emergence method, application rate 0.500 kg/ha, scale from 0 to 100
Excerpt: as §1, §7, §3, §4, §5, §6

[6] = system: Abutilon theophrasti (ABUTH); experiment: greenhouse post-emergence herbicidal test, ABUTH; conditions: post-emergence method, application rate 0.250 kg/ha, scale from 0 to 100
Excerpt: as §1, §7, §3, §4, §5, §6

CC(C)(C(=O)Nc1cccc(OC(F)(F)F)c1)C(=O)N[C@H]1C=C[C@@H](C(=O)O)C1 (relative stereo) [Compound 1.79]
herbicidal activity against DIGSA [1]: good (A good herbicidal activity is given at values of 70 to <90)

CC(C)(C(=O)Nc1cc(Cl)cc(Cl)c1)C(=O)N[C@H]1C=C[C@@H](C(=O)O)C1 (relative stereo) [Compound 1.80]
herbicidal activity against LOLMU [2]: good (A good herbicidal activity is given at values of 70 to <90)

COC(=O)CC(C)NC(=O)C(C)(C)C(=O)Nc1cc(Cl)cc(Cl)c1 (stereo not drawn) [Compound 1.1]
herbicidal activity against ABUTH ([3]; application rate 0.500 kg/ha): good (A good herbicidal activity is given at values of 70 to <90) | herbicidal activity against APESV [4]: very good (a very good herbicidal activity is given at values of 90 to 100) | herbicidal activity against ALOMY [5]: very good (a very good herbicidal activity is given at values of 90 to 100) | herbicidal activity against AVEFA (Avena fatua (AVEFA)): very good (a very good herbicidal activity is given at values of 90 to 100) | herbicidal activity against SETVI (Setaria viridis (SETVI)): very good (a very good herbicidal activity is given at values of 90 to 100)

COC(=O)C1C=CC(NC(=O)C(C)(C)C(=O)Nc2cccc(I)c2)C1 (stereo not drawn) [Compound 1.4]
herbicidal activity against ABUTH [6]: good (A good herbicidal activity is given at values of 70 to <90)

CCc1cccc(NC(=O)C(C)(C)C(=O)NC(C)CCC(=O)OC)c1 (stereo not drawn) [Compound 1.19]
herbicidal activity against ABUTH ([3]; application rate 0.250 kg/ha): good (A good herbicidal activity is given at values of 70 to <90)
